Laboratory results from PMC11520566, “Discovery of pyrazole-based analogs as CDK2 inhibitors with apoptotic-inducing activity: design, synthesis and molecular dynamics study” (RSC Advances, 2024).

Assays:
HL-60(TB) = assay: NCI 60 five dose assay, Leukemia; type: cell-based, human
ACHN = assay: NCI 60 five dose assay, Renal cancer; type: cell-based, human
[1] = Homo sapiens, read-out: LC50 (the source's name)

## CC(=NNc1ccc(S(N)(=O)=O)cc1)c1ccc(NN=C2C(=O)NN=C2Nc2ccccc2)cc1 [Compound 4, 4-(2-(1-(4-(2-(5-oxo-3-(phenylamino)-1,5-dihydro-4H-pyrazol-4-ylidene)hydrazinyl)phenyl)ethylidene)hydrazinyl)benzene sulfonamide]
HL-60(TB); Homo sapiens
  GI50: 2.86 µM
HL-60(TB); [1]
  CC50: 60.5 µM
HL-60(TB); Log10 Concentration -4.0 Molar
  Percent Growth: -70%
HL-60(TB); Log10 Concentration -5.0 Molar
  Percent Growth: 21%
HL-60(TB); Log10 Concentration -6.0 Molar
  Percent Growth: 74%
HL-60(TB); Log10 Concentration -7.0 Molar
  Percent Growth: 87%
HL-60(TB); Log10 Concentration -8.0 Molar
  Percent Growth: 89%
ACHN; Homo sapiens
  GI50: 5.9 µM
ACHN; [1]
  CC50: 43 µM
ACHN; Log10 Concentration -4.0 Molar
  Percent Growth: -100%
ACHN; Log10 Concentration -5.0 Molar
  Percent Growth: 36%
ACHN; Log10 Concentration -6.0 Molar
  Percent Growth: 96%
ACHN; Log10 Concentration -7.0 Molar
  Percent Growth: 104%
ACHN; Log10 Concentration -8.0 Molar
  Percent Growth: 94%
